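GI50 is the concentration that inhibits growth by half. TGI is the concentration that stops growth completely.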
How the values were obtained:
Assay in all cases: DTP human tumour cell line panel, 384-well format
HOP-92 NSCLC = test system: HOP-92 NSCLC
RPMI-8226 leukemia = test system: RPMI-8226 leukemia
SNB-19 CNS = test system: SNB-19 CNS
A498 renal = test system: A498 renal
OVCAR-4 ovarian = test system: OVCAR-4 ovarian
OVCAR-3 ovarian = test system: OVCAR-3 ovarian
UO-31 renal = test system: UO-31 renal
OVCAR-5 ovarian = test system: OVCAR-5 ovarian
HCT-116 colon = test system: HCT-116 colon
IGROV1 ovarian = test system: IGROV1 ovarian
NCI-H522 lung = test system: NCI-H522 lung
U251 glioblastoma = test system: U251 glioblastoma
COLO 205 colon = test system: COLO 205 colon
RXF 393 renal = test system: RXF 393 renal
OVCAR-8 ovarian = test system: OVCAR-8 ovarian
MALME-3M melanoma = test system: MALME-3M melanoma
NCI-H460 NSCLC = test system: NCI-H460 NSCLC
SK-MEL-28 melanoma = test system: SK-MEL-28 melanoma
ACHN renal = test system: ACHN renal
T-47D breast = test system: T-47D breast
SNB-75 CNS = test system: SNB-75 CNS
SK-OV-3 ovarian = test system: SK-OV-3 ovarian
SN12C renal = test system: SN12C renal
PC-3 prostate = test system: PC-3 prostate
MDA-MB-231 breast = test system: MDA-MB-231 breast
NCI-H23 lung = test system: NCI-H23 lung
MCF7 breast = test system: MCF7 breast
SF-295 CNS = test system: SF-295 CNS
HOP-62 NSCLC = test system: HOP-62 NSCLC
SF-539 CNS = test system: SF-539 CNS
BT-549 breast = test system: BT-549 breast
MOLT-4 leukemia = test system: MOLT-4 leukemia
SF-268 CNS = test system: SF-268 CNS
NCI-H226 lung = test system: NCI-H226 lung
UACC-62 melanoma = test system: UACC-62 melanoma
A549 NSCLC = test system: A549 NSCLC
KM12 colon = test system: KM12 colon
SK-MEL-5 melanoma = test system: SK-MEL-5 melanoma
M14 melanoma = test system: M14 melanoma
786-0 renal = test system: 786-0 renal
MDA-MB-435 melanoma = test system: MDA-MB-435 melanoma
LOX IMVI melanoma = test system: LOX IMVI melanoma
CAKI-1 renal = test system: CAKI-1 renal
HCT-15 colon = test system: HCT-15 colon
HS 578T breast = test system: HS 578T breast
NCI/ADR-RES ovarian = test system: NCI/ADR-RES ovarian
DU-145 prostate = test system: DU-145 prostate
UACC-257 melanoma = test system: UACC-257 melanoma
SR leukemia = test system: SR leukemia
TK-10 renal = test system: TK-10 renal
HL-60(TB) leukemia = test system: HL-60(TB) leukemia
EKVX NSCLC = test system: EKVX NSCLC
MDA-MB-468 breast = test system: MDA-MB-468 breast
SW-620 colon = test system: SW-620 colon

`C=CC(=O)N1CCCC(n2nc(-c3ccc(Oc4ccccc4)cc3)c3c(N)ncnc32)C1` (stereo not drawn) showed a GI50 (HOP-92 NSCLC) of 13.6 µM, a TGI (HOP-92 NSCLC) of 26.5 µM and a GI50 (RPMI-8226 leukemia) of 10.5 µM. The TGI (RPMI-8226 leukemia) was 22.4 µM, the GI50 (SNB-19 CNS) was 15 µM and the TGI (SNB-19 CNS) was 28.4 µM. The GI50 (A498 renal) was 11.5 µM, the TGI (A498 renal) was 23.7 µM and the GI50 (OVCAR-4 ovarian) was 11.2 µM. The TGI (OVCAR-4 ovarian) was 23.3 µM, the GI50 (OVCAR-3 ovarian) was 2050 nM and the TGI (OVCAR-3 ovarian) was 15.5 µM. The GI50 (UO-31 renal) was 6.11 µM, the TGI (UO-31 renal) was 19.9 µM and the GI50 (OVCAR-5 ovarian) was 18.7 µM. For the same molecule, the TGI (OVCAR-5 ovarian) was 32.8 µM, the GI50 (HCT-116 colon) was 15.3 µM and the TGI (HCT-116 colon) was 28.8 µM. The GI50 (IGROV1 ovarian) was 114 nM, the TGI (IGROV1 ovarian) was 5.9 µM and the GI50 (NCI-H522 lung) was 17.8 nM. For the same molecule, the TGI (NCI-H522 lung) was 85.9 nM, the GI50 (U251 glioblastoma) was 14 µM and the TGI (U251 glioblastoma) was 27.1 µM. For the same molecule, the GI50 (COLO 205 colon) was 18.9 µM, the TGI (COLO 205 colon) was 33 µM and the GI50 (RXF 393 renal) was 1180 nM. It also gave a TGI (RXF 393 renal) of 6.31 µM, a GI50 (OVCAR-8 ovarian) of 12.1 µM and a TGI (OVCAR-8 ovarian) of 24.6 µM. For the same molecule, the GI50 (MALME-3M melanoma) was 13.5 µM, the TGI (MALME-3M melanoma) was 26.4 µM and the GI50 (NCI-H460 NSCLC) was 16.5 µM. For the same molecule, the TGI (NCI-H460 NSCLC) was 30.1 µM, the GI50 (SK-MEL-28 melanoma) was 17.3 µM and the TGI (SK-MEL-28 melanoma) was 31.2 µM. The GI50 (ACHN renal) was 655 nM, the TGI (ACHN renal) was 17.3 µM and the GI50 (T-47D breast) was 14.8 nM. It also gave a TGI (T-47D breast) of 17.7 µM, a GI50 (SNB-75 CNS) of 5.51 µM and a TGI (SNB-75 CNS) of 14 µM. It also gave a GI50 (SK-OV-3 ovarian) of 2870 nM, a TGI (SK-OV-3 ovarian) of 20.5 µM and a GI50 (SN12C renal) of 2710 nM. For the same molecule, the TGI (SN12C renal) was 16.5 µM, the GI50 (PC-3 prostate) was 14.8 µM and the TGI (PC-3 prostate) was 28.1 µM. For the same molecule, the GI50 (MDA-MB-231 breast) was 16.2 µM, the TGI (MDA-MB-231 breast) was 29.8 µM and the GI50 (NCI-H23 lung) was 16.3 µM. The TGI (NCI-H23 lung) was 29.9 µM, the GI50 (MCF7 breast) was 10.3 µM and the TGI (MCF7 breast) was 22.1 µM. For the same molecule, the GI50 (SF-295 CNS) was 14.7 µM, the TGI (SF-295 CNS) was 27.9 µM and the GI50 (HOP-62 NSCLC) was 15.2 µM. For the same molecule, the TGI (HOP-62 NSCLC) was 28.6 µM, the GI50 (SF-539 CNS) was 11.3 µM and the TGI (SF-539 CNS) was 23.4 µM. It also gave a GI50 (BT-549 breast) of 3.59 µM, a TGI (BT-549 breast) of 13.3 µM and a GI50 (MOLT-4 leukemia) of 1320 nM. For the same molecule, the TGI (MOLT-4 leukemia) was 5.02 µM, the GI50 (SF-268 CNS) was 6.51 µM and the TGI (SF-268 CNS) was 20 µM. The GI50 (NCI-H226 lung) was 6.21 µM, the TGI (NCI-H226 lung) was 19.3 µM and the GI50 (UACC-62 melanoma) was 5.71 µM. It also gave a TGI (UACC-62 melanoma) of 18.7 µM, a GI50 (A549 NSCLC) of 12.1 µM and a TGI (A549 NSCLC) of 24.5 µM. For the same molecule, the GI50 (KM12 colon) was 14.5 µM, the TGI (KM12 colon) was 27.7 µM and the GI50 (SK-MEL-5 melanoma) was 10.9 µM. For the same molecule, the TGI (SK-MEL-5 melanoma) was 23 µM, the GI50 (M14 melanoma) was 11.1 µM and the TGI (M14 melanoma) was 23.2 µM. The GI50 (786-0 renal) was 3.78 µM, the TGI (786-0 renal) was 17.4 µM and the GI50 (MDA-MB-435 melanoma) was 17.2 µM. For the same molecule, the TGI (MDA-MB-435 melanoma) was 31.1 µM, the GI50 (LOX IMVI melanoma) was 4.43 µM and the TGI (LOX IMVI melanoma) was 19.3 µM. For the same molecule, the GI50 (CAKI-1 renal) was 6.76 µM, the TGI (CAKI-1 renal) was 19.6 µM and the GI50 (HCT-15 colon) was 12.6 µM. It also gave a TGI (HCT-15 colon) of 25.3 µM, a GI50 (HS 578T breast) of 6.88 µM and a TGI (HS 578T breast) of 19.5 µM. For the same molecule, the GI50 (NCI/ADR-RES ovarian) was 11.3 µM, the TGI (NCI/ADR-RES ovarian) was 23.5 µM and the GI50 (DU-145 prostate) was 4.16 µM. It also gave a TGI (DU-145 prostate) of 19.2 µM, a GI50 (UACC-257 melanoma) of 10.6 µM and a TGI (UACC-257 melanoma) of 22.5 µM. It also gave a GI50 (SR leukemia) of 5.35 µM, a TGI (SR leukemia) of 18.4 µM and a GI50 (TK-10 renal) of 479 nM. For the same molecule, the TGI (TK-10 renal) was 12.1 µM, the GI50 (HL-60(TB) leukemia) was 15.9 µM and the TGI (HL-60(TB) leukemia) was 29.4 µM. For the same molecule, the GI50 (EKVX NSCLC) was 316 nM, the TGI (EKVX NSCLC) was 16.7 µM and the GI50 (MDA-MB-468 breast) was 22.6 nM. It also gave a TGI (MDA-MB-468 breast) of 239 nM, a GI50 (SW-620 colon) of 18.4 µM and a TGI (SW-620 colon) of 32.5 µM.

— PubChem BioAssay (NCI)
